Data as given in ChEMBL document CHEMBL1697781, “Assessment of the health effects of chemicals in humans: II. Construction of an adverse effects database for QSAR modeling” (Curr Drug Discov Technol, 2004).

Assays:
Details in all cases: human; call rule not given here
[1] = system: Hepatotoxicity; assay: FDA HLAED, liver enzyme composite activity
[2] = system: Hepatotoxicity; assay: FDA HLAED, serum glutamic oxaloacetic transaminase (SGOT) increase
[3] = system: Hepatotoxicity; assay: FDA HLAED, alkaline phosphatase increase
[4] = system: Hepatotoxicity; assay: FDA HLAED, lactate dehydrogenase (LDH) increase
[5] = system: Hepatotoxicity; assay: FDA HLAED, gamma-glutamyl transferase (GGT) increase
[6] = system: Hepatotoxicity; assay: FDA HLAED, serum glutamic pyruvic transaminase (SGPT) increase
Throughout, for GGT Increase - Index Value: reference of the scale not given here.
Throughout, for LDH Increase - Index Value: reference of the scale not given here.

SMILES	Composite Activity - Active [1]	Composite Activity - Marginal [1]	Composite Activity - Score [1]	SGOT Increase - Activity Score [2]	SGOT Increase - Index Value [2]	SGOT Increase - Number of Reports [2]	Alkaline Phosphatase Increase - Activity Score [3]	Alkaline Phosphatase Increase - Index Value [3]	Alkaline Phosphatase Increase - Number of Reports [3]	LDH Increase - Activity Score [4]	LDH Increase - Index Value [4]	LDH Increase - Number of Reports [4]	GGT Increase - Activity Score [5]	GGT Increase - Index Value [5]	GGT Increase - Number of Reports [5]	SGPT Increase - Activity Score [6]	SGPT Increase - Index Value [6]	SGPT Increase - Number of Reports [6]
CCN1CCN(C(=O)N[C@@H](C(=O)N[C@@H]2C(=O)N3C(C(=O)O)=C(CSc4nnnn4C)CS[C@H]23)c2ccc(O)cc2)C(=O)C1=O [CEFOPERAZONE]	0	0	Inactive	Inactive	0.4	>= 4	Inactive	0	< 4	Inactive	0.1	< 4	Inactive	0	< 4	Inactive	0.2	< 4
CO/N=C(\C(=O)N[C@@H]1C(=O)N2C(C(=O)O)=C(COC(C)=O)CS[C@H]12)c1csc(N)n1 [CEFOTAXIME]	1	0	Inactive	Active	4.7	>= 4	Inactive	0.3	< 4	Inactive	0	< 4	Inactive	0	< 4	Inactive	2	< 4
CO[C@@]1(NC(=O)C2SC(=C(C(N)=O)C(=O)O)S2)C(=O)N2C(C(=O)O)=C(CSc3nnnn3C)CS[C@@H]21 (stereo partly drawn) [CEFOTETAN]	0	0	Inactive	Inactive	0	< 4	Inactive	0.7	< 4	Inactive	0	< 4	Inactive	0	< 4	Inactive	0	< 4
CO[C@@]1(NC(=O)Cc2cccs2)C(=O)N2C(C(=O)O)=C(COC(N)=O)CS[C@@H]21 [CEFOXITIN]	0	0	Inactive	Inactive	0	< 4	Inactive	0	< 4	Inactive	0	< 4	Inactive	0	< 4	Inactive	0	< 4
COCC1=C(C(=O)OC(C)OC(=O)OC(C)C)N2C(=O)[C@@H](NC(=O)/C(=N\OC)c3csc(N)n3)[C@H]2SC1 (stereo partly drawn) [CEFPODOXIME PROXETIL]	0	0	Inactive	Inactive	1	>= 4	Inactive	1	>= 4	Inactive	0.2	< 4	Inactive	0.5	< 4	Inactive	0.8	>= 4
COCC1=C(C(=O)O)N2C(=O)[C@@H](NC(=O)/C(=N\OC)c3csc(N)n3)[C@H]2SC1 [CEFPODOXIME]	0	0	Inactive	Inactive	1	>= 4	Inactive	1	>= 4	Inactive	0.2	< 4	Inactive	0.5	< 4	Inactive	0.8	>= 4
CC=CC1=C(C(=O)O)N2C(=O)[C@@H](NC(=O)[C@H](N)c3ccc(O)cc3)[C@H]2SC1 [CEFPROZIL]	0	0	Inactive	Inactive	0.4	>= 4	Inactive	0.2	>= 4	Inactive	0.2	>= 4	Inactive	0.1	< 4	Inactive	0.2	>= 4
CC(C)(O/N=C(\C(=O)N[C@@H]1C(=O)N2C(C(=O)[O-])=C(C[n+]3ccccc3)CS[C@H]12)c1csc(N)n1)C(=O)O [CEFTAZIDIME]	0	0	Inactive	Inactive	0	< 4	Inactive	0	< 4	Inactive	0	< 4	Inactive	0	< 4	Inactive	0	< 4
Nc1nc(/C(=C/CC(=O)O)C(=O)N[C@@H]2C(=O)N3C(C(=O)O)=CCS[C@H]23)cs1 [CEFTIBUTEN]	0	0	Inactive	Inactive	0	< 4	Inactive	0	< 4	Inactive	0	< 4	Inactive	0	< 4	Inactive	0	< 4
CO/N=C(\C(=O)N[C@@H]1C(=O)N2C(C(=O)O)=CCS[C@H]12)c1csc(N)n1 [CEFTIZOXIME]	2	0	Active	Active	7.8	>= 4	Inactive	2.9	>= 4	Inactive	0.3	< 4	Inactive	0	< 4	Active	4	>= 4
CO/N=C(\C(=O)N[C@@H]1C(=O)N2C(C(=O)O)=C(CSc3nc(=O)c(=O)[nH]n3C)CS[C@H]12)c1csc(N)n1 [CEFTRIAXONE]	0	3	Inactive	Marginally Active	3.8	>= 4	Marginally Active	3.4	>= 4	Inactive	1.9	>= 4	Inactive	2.6	>= 4	Marginally Active	3.8	>= 4
